Reference: US20020137929A1, “1 - (3-heterocyclylphenyl) isothiourea, -isourea, -guanidine and -amidine herbicidal agents” (Intellectual Property Department, BASF Aktiengesellschaft, priority 1998, published 2002)

Legend:
ABUTH (Velvetleaf) [1] = assay: Postemergence herbicidal evaluation; format: in vivo, Abutilon theophrasti; conditions: postemergence
How it was run: (§1)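 First, seedlings were raised for around two weeks. Next, test material in 50/50 acetone/water containing 0.5% TWEEN 20 was sprayed through a nozzle at 40 psi, equivalent to about 0.0156–0.500 kg/ha. Finally, after 4–5 weeks in the greenhouse, plants were rated 0–9.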

[2] = tested on: IPOHE (Morningglory, Ivyleaf); assay: Postemergence herbicidal evaluation; format: in vivo, Ipomoea hederacea; conditions: postemergence
How it was run: as §1

SETVI (Foxtail, Green) = assay: Postemergence herbicidal evaluation; format: in vivo, Setaria viridis; conditions: postemergence
How it was run: as §1

[3] = tested on: GLXMAW (Soybean, Williams); assay: Postemergence herbicidal evaluation; format: in vivo, Glycine max, (L.) Merr. cv Williams; conditions: postemergence
How it was run: as §1

ZEAMX (Corn, Field) = assay: Postemergence herbicidal evaluation; format: in vivo, Zea mays; conditions: postemergence
How it was run: as §1

ABUTH (Velvetleaf) [4] = assay: Preemergence herbicidal evaluation; format: in vivo, Abutilon theophrasti; conditions: rated 4-5 weeks after treatment
How it was run: (§2)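 Seeds were mixed with potting soil and planted on about one inch of soil, then sprayed with test compound in aqueous acetone at about 0.0156 to 0.500 kg per hectare. Plants grew under standard greenhouse care and were visually rated 0-9 against untreated controls 4-5 weeks post-treatment.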

AMBEL (Ragweed, Common) = assay: Preemergence herbicidal evaluation; format: in vivo, Ambrosia artemisifolia; conditions: rated 4-5 weeks after treatment
How it was run: as §2

CASOB (Sicklepod) = assay: Preemergence herbicidal evaluation; format: in vivo, Cassia obtusifolia; conditions: rated 4-5 weeks after treatment
How it was run: as §2

[5] = tested on: IPOHE (Morningglory, Ivyleaf); assay: Preemergence herbicidal evaluation; format: in vivo, Ipomoea hederacea; conditions: rated 4-5 weeks after treatment
How it was run: as §2

ECHCG (Barnyardgrass) = assay: Preemergence herbicidal evaluation; format: in vivo, Echinochloa crus-galli; conditions: rated 4-5 weeks after treatment
How it was run: as §2

[6] = tested on: ECHORC (Watergrass (Calif.)); assay: Preemergence weed control under flooded paddy conditions; format: in vivo, Echinochloa oryzoides; conditions: rated 3-4 weeks after treatment
How it was run: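 Flooded-pot preemergence screen with silt loam and seeds in the upper 0.5 cm. Dose about 0.0313 to 0.500 kg/ha, delivered into flood water; visual 0-9 score after 3 to 4 weeks.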

CYPSE (Flatsedge) = assay: as above; format: in vivo, Cyperus serotinus; conditions: rated 3-4 weeks after treatment
How it was run: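 First, seeds or propagules go into the top 0.5 cm of silt loam; next, water is held 1.5 to 3 cm over the soil; then compound (50/50 acetone/water) is pipetted into it at about 0.0313 to 0.500 kg/ha; finally plants are rated visually 0-9 after three to four weeks.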

[7] = rate 0.0313 kg/ha, rating scale 0-9
[8] = rate 0.0625 kg/ha, rating scale 0-9
[9] = rate 0.1250 kg/ha, rating scale 0-9
[10] = rate 0.2500 kg/ha, rating scale 0-9

Cc1ccccc1CN1C(=O)CSC1=Nc1cc(-n2c(=O)cc(C(F)(F)F)n(C)c2=O)c(F)cc1Cl [Compound 129, 3-{4-Chloro-2-fluoro-5-{[3-(o-methylbenzyl)-4-oxo-2-thiazolidinylidene]amino}phenyl}-1-methyl-6-(trifluoromethyl)-2,4 (1H,3H)-pyrimidinedione]
Herbicidal rating ABUTH (ABUTH (Velvetleaf) [1]; rate 0.0156 kg/ha): 9.0
Herbicidal rating ABUTH (ABUTH (Velvetleaf) [1]; rate 0.0313 kg/ha): 9.0
Herbicidal rating ABUTH (ABUTH (Velvetleaf) [1]; rate 0.0625 kg/ha): 9.0
Herbicidal rating IPOHE ([2]; rate 0.0156 kg/ha): 9.0
Herbicidal rating IPOHE ([2]; rate 0.0313 kg/ha): 9.0
Herbicidal rating IPOHE ([2]; rate 0.0625 kg/ha): 9.0
Herbicidal rating SETVI (SETVI (Foxtail, Green); rate 0.0156 kg/ha): 2.0
Herbicidal rating SETVI (SETVI (Foxtail, Green); rate 0.0313 kg/ha): 3.0
Herbicidal rating SETVI (SETVI (Foxtail, Green); rate 0.0625 kg/ha): 5.0
Herbicidal rating GLXMAW ([3]; rate 0.0156 kg/ha): 5.0
Herbicidal rating GLXMAW ([3]; rate 0.0313 kg/ha): 5.0
Herbicidal rating GLXMAW ([3]; rate 0.0625 kg/ha): 6.0
Herbicidal rating ZEAMX (ZEAMX (Corn, Field); rate 0.0156 kg/ha): 4.0
Herbicidal rating ZEAMX (ZEAMX (Corn, Field); rate 0.0313 kg/ha): 4.5
Herbicidal rating ZEAMX (ZEAMX (Corn, Field); rate 0.0625 kg/ha): 4.5
Preemergence herbicidal rating ABUTH (ABUTH (Velvetleaf) [4]; rate 0.0156 kg/ha): 0.0
Preemergence herbicidal rating ABUTH (ABUTH (Velvetleaf) [4]; rate 0.0313 kg/ha): 1.0
Preemergence herbicidal rating ABUTH (ABUTH (Velvetleaf) [4]; rate 0.0625 kg/ha): 9.0
Preemergence herbicidal rating ABUTH (ABUTH (Velvetleaf) [4]; rate 0.1250 kg/ha): 9.0
Preemergence herbicidal rating ABUTH (ABUTH (Velvetleaf) [4]; rate 0.2500 kg/ha): 9.0
Preemergence herbicidal rating AMBEL (AMBEL (Ragweed, Common); rate 0.0156 kg/ha): 0.0
Preemergence herbicidal rating AMBEL (AMBEL (Ragweed, Common); rate 0.0313 kg/ha): 0.0
Preemergence herbicidal rating AMBEL (AMBEL (Ragweed, Common); rate 0.0625 kg/ha): 0.0
Preemergence herbicidal rating AMBEL (AMBEL (Ragweed, Common); rate 0.1250 kg/ha): 7.0
Preemergence herbicidal rating AMBEL (AMBEL (Ragweed, Common); rate 0.2500 kg/ha): 7.0
Preemergence herbicidal rating CASOB (CASOB (Sicklepod); rate 0.0156 kg/ha): 1.0
Preemergence herbicidal rating CASOB (CASOB (Sicklepod); rate 0.0313 kg/ha): 1.0
Preemergence herbicidal rating CASOB (CASOB (Sicklepod); rate 0.0625 kg/ha): 1.0
Preemergence herbicidal rating CASOB (CASOB (Sicklepod); rate 0.1250 kg/ha): 7.0
Preemergence herbicidal rating CASOB (CASOB (Sicklepod); rate 0.2500 kg/ha): 8.0
Preemergence herbicidal rating IPOHE ([5]; rate 0.0156 kg/ha): 0.0
Preemergence herbicidal rating IPOHE ([5]; rate 0.0313 kg/ha): 0.0
Preemergence herbicidal rating IPOHE ([5]; rate 0.0625 kg/ha): 0.0
Preemergence herbicidal rating IPOHE ([5]; rate 0.1250 kg/ha): 9.0
Preemergence herbicidal rating IPOHE ([5]; rate 0.2500 kg/ha): 9.0
Preemergence herbicidal rating ECHCG (ECHCG (Barnyardgrass); rate 0.0156 kg/ha): 0.0
Preemergence herbicidal rating ECHCG (ECHCG (Barnyardgrass); rate 0.0313 kg/ha): 0.0
Preemergence herbicidal rating ECHCG (ECHCG (Barnyardgrass); rate 0.0625 kg/ha): 0.0
Preemergence herbicidal rating ECHCG (ECHCG (Barnyardgrass); rate 0.1250 kg/ha): 1.0
Preemergence herbicidal rating ECHCG (ECHCG (Barnyardgrass); rate 0.2500 kg/ha): 0.0
herbicidal effect rating, ECHORC ([6]; 0.0313 kg/ha): 9.0
herbicidal effect rating, ECHORC ([6]; 0.0625 kg/ha): 9.0
herbicidal effect rating, ECHORC ([6]; 0.1250 kg/ha): 9.0
herbicidal effect rating, ECHORC ([6]; 0.2500 kg/ha): 9.0
herbicidal effect rating, CYPSE (CYPSE (Flatsedge); 0.1250 kg/ha): 7.0
herbicidal effect rating, CYPSE (CYPSE (Flatsedge); 0.2500 kg/ha): 9.0

Cn1c(C(F)(F)F)cc(=O)n(-c2cc(N=C3SCC(=O)N3Cc3ccccn3)c(Cl)cc2F)c1=O [Compound 131]
Herbicidal rating ABUTH (ABUTH (Velvetleaf) [1]; rate 0.0156 kg/ha): 7.0
Herbicidal rating ABUTH (ABUTH (Velvetleaf) [1]; rate 0.0313 kg/ha): 9.0
Herbicidal rating ABUTH (ABUTH (Velvetleaf) [1]; rate 0.0625 kg/ha): 9.0
Herbicidal rating IPOHE ([2]; rate 0.0156 kg/ha): 7.0
Herbicidal rating IPOHE ([2]; rate 0.0313 kg/ha): 9.0
Herbicidal rating IPOHE ([2]; rate 0.0625 kg/ha): 9.0
Herbicidal rating SETVI (SETVI (Foxtail, Green); rate 0.0156 kg/ha): 3.0
Herbicidal rating SETVI (SETVI (Foxtail, Green); rate 0.0313 kg/ha): 4.0
Herbicidal rating SETVI (SETVI (Foxtail, Green); rate 0.0625 kg/ha): 5.0
Herbicidal rating GLXMAW ([3]; rate 0.0156 kg/ha): 4.5
Herbicidal rating GLXMAW ([3]; rate 0.0313 kg/ha): 5.0
Herbicidal rating GLXMAW ([3]; rate 0.0625 kg/ha): 5.5
Herbicidal rating ZEAMX (ZEAMX (Corn, Field); rate 0.0156 kg/ha): 4.5
Herbicidal rating ZEAMX (ZEAMX (Corn, Field); rate 0.0313 kg/ha): 4.5
Herbicidal rating ZEAMX (ZEAMX (Corn, Field); rate 0.0625 kg/ha): 4.5
Preemergence herbicidal rating ABUTH (ABUTH (Velvetleaf) [4]; [7]): 0.0
Preemergence herbicidal rating ABUTH (ABUTH (Velvetleaf) [4]; [8]): 0.0
Preemergence herbicidal rating ABUTH (ABUTH (Velvetleaf) [4]; [9]): 2.0
Preemergence herbicidal rating ABUTH (ABUTH (Velvetleaf) [4]; [10]): 9.0
Preemergence herbicidal rating AMBEL (AMBEL (Ragweed, Common); [7]): 0.0
Preemergence herbicidal rating AMBEL (AMBEL (Ragweed, Common); [8]): 0.0
Preemergence herbicidal rating AMBEL (AMBEL (Ragweed, Common); [9]): 0.0
Preemergence herbicidal rating AMBEL (AMBEL (Ragweed, Common); [10]): 0.0
Preemergence herbicidal rating CASOB (CASOB (Sicklepod); [7]): 0.0
Preemergence herbicidal rating CASOB (CASOB (Sicklepod); [8]): 0.0
Preemergence herbicidal rating CASOB (CASOB (Sicklepod); [9]): 0.0
Preemergence herbicidal rating CASOB (CASOB (Sicklepod); [10]): 2.0
Preemergence herbicidal rating IPOHE [5, 7]: 0.0
Preemergence herbicidal rating IPOHE [5, 8]: 0.0
Preemergence herbicidal rating IPOHE [5, 9]: 0.0
Preemergence herbicidal rating IPOHE [5, 10]: 0.0
Preemergence herbicidal rating ECHCG (ECHCG (Barnyardgrass); [7]): 0.0
Preemergence herbicidal rating ECHCG (ECHCG (Barnyardgrass); [8]): 0.0
Preemergence herbicidal rating ECHCG (ECHCG (Barnyardgrass); [9]): 0.0
Preemergence herbicidal rating ECHCG (ECHCG (Barnyardgrass); [10]): 2.0
herbicidal effect rating, ECHORC ([6]; 0.1250 kg/ha): 2.0
herbicidal effect rating, ECHORC ([6]; 0.2500 kg/ha): 4.0
herbicidal effect rating, CYPSE (CYPSE (Flatsedge); 0.1250 kg/ha): 0.0
herbicidal effect rating, CYPSE (CYPSE (Flatsedge); 0.2500 kg/ha): 0.0
